Literature values, collected in patent US10551383B2, “Methods of detecting a polypeptide having anaplastic lymphoma kinase activity in kidney cancer” (Cell Signaling Technology, Inc., priority 2010, dated 2020).

Tested on: HGF-stimulated Madin-Darby Canine Kidney (MDCK) cells
Settings: disclosed in U.S. Pub. No. 2008/0300273

For `C[C@@H](Oc1cc(-c2cnn(C3CCNCC3)c2)cnc1N)c1c(Cl)ccc(F)c1Cl` [PF-02341066, Crizotinib], the cell colony scattering is listed as “able to reduce cell colony scattering”.
